# Measurements: patent US20230263809A1, “FOOD SUPPLEMENT FOR ALZHEIMER” (FOLIUM BIOSCIENCES EUROPE B.V., priority 2019, published 2023)
# Experiments:
# [1] = Side effects on uptake of phytosterols (compared with synthetic LXRα/β activators); type: in vivo; conditions: side effects caused normally by synthetic LXRα/β activators
# neurological behaviours = experiment: Restoring neurological behaviours on uptake of phytosterols; type: in vivo; conditions: uptake of the phytosterol
# cholesterol absorption = conditions: by competing with cholesterol absorption; cited from earlier work
# Amyloid-β deposits = conditions: in vivo; cited from earlier work
compound,measurement,setting,value
C=CC(O)(CC[C@@H](C)[C@H]1CC[C@H]2[C@@H]3CC=C4C[C@@H](O)CC[C@]4(C)[C@H]3CC[C@]12C)C(C)C (stereo partly drawn) [24(S)-Saringosterol],side effects,[1],without registering any side effects
same,restore neurological behaviours,neurological behaviours,help restore neurological behaviours
C/C=C(\CC[C@@H](C)[C@H]1CC[C@H]2[C@@H]3CC=C4C[C@@H](O)CC[C@]4(C)[C@H]3CC[C@]12C)C(C)C [Fucosterol],side effects,[1],without registering any side effects
same,restore neurological behaviours,neurological behaviours,help restore neurological behaviours
same,cholesterol lowering effect,cholesterol absorption,shows a cholesterol lowering effect
"CCCCCc1cc(O)c2c(c1)OC(C)(C)[C@@H]1CCC(C)=C[C@@H]21 [THC, Δ^9-tetrahydrocannabidiol]",removal of the toxic clumps of Amyloid-β deposits in the brain,Amyloid-β deposits,promote the removal of the toxic clumps of Amyloid-β deposits
